According to article PMC3871636 (PLoS ONE, 2013):
Where a name gives a salt, the structure may show the parent alone.

How the values were obtained:
CYP3A4(C64/C121) mutant = CYP3A4(C64/C121) mutant (Homo sapiens, UniProt P08684, A121C/C239S/C377S/C468A/C98S/S18F); assay: Ligand-induced spin shift, absorbance titration
Description: (§1) All absorbance and fluorescence assays (including the time-resolved fluorescence measurements) were performed at a protein concentration ≤1 µM at 25°C with continuous stirring. Absorbance spectra were recorded with an S2000 rapid scanning CCD spectrometer (Ocean Optics). Ligand binding assays were done in 100 mM Na-Hepes buffer, pH 7.4, containing 0.5 mM EDTA.
(§2) Absorbance spectra obtained in titration experiments were analyzed with a principal component analysis (PCA) procedure complemented with least-square approximation of the principal vectors with a combination of the prototypical spectra of the CYP3A4 low-spin, high-spin and Type II-substrate-bound ferric CYP3A4 P450 states as described, [31].
(§3) When fitting the results of titration experiments, where the changes in the monitored signal A S (fraction of the enzyme in the high-spin state, intensity or the lifetime of the donor phosphorescence at a given substrate concentration) were assumed to be proportional to [ES], this equation was complemented with the offset A 0 and the scaling factor A max to yield the following relationship: [drawing 5] (Eq.5)

[1] = biological target: wild type CYP3A4 (N-terminally truncated Δ3-12, S18F) (Homo sapiens, UniProt P08684, S18F); assay: Ligand-induced spin shift, absorbance titration
Description: as §1, §2, §3

CYP3A4(C64/C468) mutant = CYP3A4(C64/C468) mutant (Homo sapiens, UniProt P08684, S18F, form not given); assay: Ligand-induced spin shift, absorbance titration; assay type: binding; settings: C64/C468
Procedure, shortened: (§4)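 Ligand binding monitored by absorbance titration at ≤1 µM protein, 25°C with stirring, in 100 mM Na-Hepes pH 7.4 with 0.5 mM EDTA. Spectra were resolved by PCA into low-spin, high-spin and Type II-bound ferric states; high-spin fraction versus ligand concentration was fitted with offset and scaling factor.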

[2] = biological target: CYP3A4 (double-labeled C64/C468-DY/ER) (Homo sapiens, UniProt P08684, form not given/S18F); assay: Ligand-induced spin shift, absorbance titration; assay type: binding; settings: human, purified double-labeled CYP3A4 C64/C468-DY/ER protein, pH 7.4; read-out: K D or S 50
Procedure, shortened: as §4

[3] = biological target: double-labeled CYP3A4 C64/C468-DY/ER (Homo sapiens, UniProt P08684, S18F, form not given); assay: Ligand-induced spin shift, absorbance titration; assay type: binding; settings: (C64/C468)-DY/ER
Procedure, shortened: as §4

CYP3A4(C377/C468) mutant = CYP3A4(C377/C468) mutant (Homo sapiens, UniProt P08684, S18F, form not given); assay: Ligand-induced spin shift, absorbance titration; assay type: binding; settings: C377/C468
Procedure, shortened: as §4

[4] = biological target: double-labeled CYP3A4 (C64/C468)-ER/DY (Homo sapiens, UniProt P08684, S18F, form not given); assay: Steady-state LRET titration (delayed emission); assay type: binding; settings: for ΔR (change in interprobe distance), steady-state fluorescence / ΔE (change in LRET efficiency), steady-state fluorescence: (C64/C468)-ER/DY; for ΔE (change in LRET efficiency), steady-state fluorescence: from maximal relative change in donor intensity; for E (LRET efficiency with ligand), steady-state measurements / R (interprobe distance with ligand), steady-state measurements / ΔR, steady-state measurements: Table S2, C64/C468-ER/DY; for E (LRET efficiency with ligand), steady-state measurements: 1-PB 40 µM, ANF 100 µM, BCT 2.5 µM, cholesterol 100 µM, testosterone 100 µM; for R (interprobe distance with ligand), steady-state measurements / ΔR, steady-state measurements: same ligand concentrations
Procedure, shortened: (§5)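 Protein at ≤1 µM, 25°C, stirred, in 100 mM Na-Hepes pH 7.4 with 0.5 mM EDTA, kept anaerobic with a protocatechuate-3,4-dioxygenase/protocatechuic acid scavenger. Delayed emission (100 µs delay) recorded from 650 to 860 nm at 540 nm excitation, with PCA-resolved donor/acceptor intensities giving LRET efficiency and distances (κ² 0.667, n 1.4). Titration signals fitted to a binding equation with offset and scaling terms.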

[5] = biological target: double-labeled CYP3A4 (C64/C468)-DY/ER (Homo sapiens, UniProt P08684, S18F, form not given); assay: Steady-state LRET titration (delayed emission); assay type: binding; settings: for ΔR (change in interprobe distance), steady-state fluorescence / ΔE (change in LRET efficiency), steady-state fluorescence: (C64/C468)-DY/ER; for ΔE (change in LRET efficiency), steady-state fluorescence: from maximal relative change in donor intensity; for E (LRET efficiency with ligand), steady-state measurements / R (interprobe distance with ligand), steady-state measurements / ΔR, steady-state measurements: Table S2, C64/C468-DY/ER; for E (LRET efficiency with ligand), steady-state measurements: 1-PB 40 µM, ANF 100 µM, BCT 2.5 µM, cholesterol 100 µM, testosterone 100 µM; for R (interprobe distance with ligand), steady-state measurements / ΔR, steady-state measurements: same ligand concentrations
Procedure, shortened: as §5

[6] = biological target: CYP3A4 (double-labeled (C64/C468)-ER/DY) (Homo sapiens, UniProt P08684, form not given/S18F); assay: Steady-state LRET titration (delayed emission); assay type: binding; settings: human, purified double-labeled CYP3A4 (C64/C468)-ER/DY protein, pH 7.4; (C64/C468)-ER/DY; LRET titration; read-out: K d, steady-state fluorescence
Procedure, shortened: as §5

[7] = biological target: double-labeled CYP3A4 C64/C468-ER/DY (Homo sapiens, UniProt P08684, S18F, form not given); assay: Ligand-induced spin shift, absorbance titration; assay type: binding; settings: (C64/C468)-ER/DY
Procedure, shortened: as §4

[8] = biological target: CYP3A4 (double-labeled C64/C468-ER/DY) (Homo sapiens, UniProt P08684, form not given/S18F); assay: Ligand-induced spin shift, absorbance titration; assay type: binding; settings: human, purified double-labeled CYP3A4 C64/C468-ER/DY protein, pH 7.4; read-out: K D or S 50
Procedure, shortened: as §4

[9] = biological target: CYP3A4 (double-labeled C377/C468-DY/ER) (Homo sapiens, UniProt P08684, form not given/S18F); assay: Ligand-induced spin shift, absorbance titration; assay type: binding; settings: purified double-labeled CYP3A4 C377/C468-DY/ER protein, pH 7.4, read-out: K D or S 50
Procedure, shortened: as §4

Chain of CYP3A4(C64/C121) mutant (P08684 with tags, fused parts or gaps S18F/C98S/A121C/C239S/C377S/C468A limits assumed): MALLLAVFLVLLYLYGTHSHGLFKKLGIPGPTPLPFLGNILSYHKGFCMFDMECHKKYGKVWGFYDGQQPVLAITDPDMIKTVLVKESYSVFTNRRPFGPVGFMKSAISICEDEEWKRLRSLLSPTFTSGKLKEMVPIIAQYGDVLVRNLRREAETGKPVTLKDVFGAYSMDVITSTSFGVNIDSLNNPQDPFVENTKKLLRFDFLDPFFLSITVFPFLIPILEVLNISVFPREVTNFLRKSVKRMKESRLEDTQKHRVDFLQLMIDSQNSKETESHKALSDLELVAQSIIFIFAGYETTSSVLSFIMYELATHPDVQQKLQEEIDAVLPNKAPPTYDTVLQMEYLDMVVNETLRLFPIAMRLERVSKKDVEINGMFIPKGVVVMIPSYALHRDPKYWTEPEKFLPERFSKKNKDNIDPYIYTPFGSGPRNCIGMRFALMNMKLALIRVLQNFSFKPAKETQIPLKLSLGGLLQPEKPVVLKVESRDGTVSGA
Chain of wild type CYP3A4 (N-terminally truncated Δ3-12, S18F) (P08684 with tags, fused parts or gaps S18F): as the sequence (P08684 with tags, fused parts or gaps S18F/C98S/A121C/C239S/C377S/C468A limits assumed) above, with S88C, C111A, S229C, S367C, A458C counted along it
Chain of double-labeled CYP3A4 (C64/C468)-ER/DY (P08684 13-503 S18F, form open): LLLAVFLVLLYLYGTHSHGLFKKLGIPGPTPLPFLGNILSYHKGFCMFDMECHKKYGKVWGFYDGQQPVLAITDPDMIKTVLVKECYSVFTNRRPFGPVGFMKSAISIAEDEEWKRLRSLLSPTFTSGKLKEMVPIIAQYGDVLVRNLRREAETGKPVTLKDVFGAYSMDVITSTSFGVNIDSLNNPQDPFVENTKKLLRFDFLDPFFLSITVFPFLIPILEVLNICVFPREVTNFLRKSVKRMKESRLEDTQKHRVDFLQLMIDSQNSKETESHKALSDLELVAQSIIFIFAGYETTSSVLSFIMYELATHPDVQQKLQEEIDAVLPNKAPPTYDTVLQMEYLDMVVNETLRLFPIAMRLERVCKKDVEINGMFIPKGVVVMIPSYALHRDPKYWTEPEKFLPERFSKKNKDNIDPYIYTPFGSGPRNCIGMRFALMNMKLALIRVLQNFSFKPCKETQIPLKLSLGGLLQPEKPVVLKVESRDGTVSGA
Chain of CYP3A4(C64/C468) mutant (P08684 13-503 S18F, form open): as above
Chain of CYP3A4(C377/C468) mutant (P08684 13-503 S18F, form open): as above
Chain of double-labeled CYP3A4 (C64/C468)-DY/ER (P08684 13-503 S18F, form open): as above
Chain of double-labeled CYP3A4 C64/C468-ER/DY (P08684 13-503 S18F, form open): as above
Chain of double-labeled CYP3A4 C64/C468-DY/ER (P08684 13-503 S18F, form open): as above
Chain of CYP3A4 (double-labeled C64/C468-ER/DY) (P08684 13-503 S18F, form open): as above
Chain of CYP3A4 (double-labeled C64/C468-DY/ER) (P08684 13-503 S18F, form open): as above
Chain of CYP3A4 (double-labeled C377/C468-DY/ER) (P08684 13-503 S18F, form open): as above
Chain of CYP3A4 (double-labeled (C64/C468)-ER/DY) (P08684 13-503 S18F, form open): as above

O=c1cc(-c2ccccc2)oc2c1ccc1ccccc12 [ANF, α-naphthoflavone] was tested, and the Kd (CYP3A4(C64/C121) mutant) was 8.6 ± 1.6 µM, the “Nh (Hill coefficient)” value (CYP3A4(C64/C121) mutant; human, pH 7.4) was 1.3±0.4 and the “ΔF HS (amplitude of ligand-induced spin shift)” value (CYP3A4(C64/C121) mutant; human, pH 7.4) was 19±4%. For the same molecule, the Kd [1] was 7.4 ± 1.6 µM, the “Nh (Hill coefficient)” value ([1]; human, pH 7.4) was 1.9±0.3 and the “ΔF HS (amplitude of ligand-induced spin shift)” value ([1]; human, pH 7.4) was 41±1%. The “Nh (Hill coefficient)” value (CYP3A4(C64/C468) mutant) was 1.8±0.2, the “ΔF HS (amplitude of ligand-induced spin shift)” value (CYP3A4(C64/C468) mutant) was 39±8% and the Kd [2] was 4.2 ± 0.9 µM. The “Nh (Hill coefficient)” value [3] was 1.5±0.1, the “ΔF HS (amplitude of ligand-induced spin shift)” value [3] was 13±1% and the “Nh (Hill coefficient)” value (CYP3A4(C377/C468) mutant) was 1.4±0.2. The “ΔF HS (amplitude of ligand-induced spin shift)” value (CYP3A4(C377/C468) mutant) was 24±12%, the “ΔR (change in interprobe distance), steady-state fluorescence” value (“ΔR (change in interprobe distance)” for short) [4] was 2.1±0.9 Å and the “ΔE (change in LRET efficiency), steady-state fluorescence” value (“ΔE (change in LRET efficiency)” for short) [4] was −8±4%. The “E (LRET efficiency with ligand), steady-state measurements” value (“E (LRET efficiency with ligand)” for short) [4] was 23 ± 2%, the “R (interprobe distance with ligand), steady-state measurements” value (from here on “R (interprobe distance with ligand)”) [4] was 41.2 ± 0.9 Å and the “ΔR, steady-state measurements” value [4] was 2.1 ± 0.9 Å. For the same molecule, the “ΔR (change in interprobe distance)” value [5] was 3.9±1.7 Å, the “ΔE (change in LRET efficiency)” value [5] was −18±1% and the “E (LRET efficiency with ligand)” value [5] was 29 ± 1%. The “R (interprobe distance with ligand)” value [5] was 38.8 ± 1 Å, the “ΔR, steady-state measurements” value [5] was 3.9 ± 1.7 Å and the Kd [6] was 17.3 ± 7.2 µM.

For OCCCCc1ccc2ccc3cccc4ccc1c2c34 [1-PB, 1-pyrenebutanol], the Kd (CYP3A4(C64/C121) mutant) was 16 ± 8 µM, the “Nh (Hill coefficient)” value (CYP3A4(C64/C121) mutant; C64/C121) was 1.3±0.5 and the “ΔF HS (amplitude of ligand-induced spin shift)” value (CYP3A4(C64/C121) mutant; C64/C121) was 17±10%. For the same molecule, the Kd [1] was 9.5 ± 0.9 µM, the “Nh (Hill coefficient)” value ([1]; W/T) was 1.6±0.4 and the “ΔF HS (amplitude of ligand-induced spin shift)” value ([1]; W/T) was 50±1%. For the same molecule, the “Nh (Hill coefficient)” value [7] was 1.3±0.1, the “ΔF HS (amplitude of ligand-induced spin shift)” value [7] was 18±2% and the “Nh (Hill coefficient)” value (CYP3A4(C64/C468) mutant) was 1.2±0.1. The “ΔF HS (amplitude of ligand-induced spin shift)” value (CYP3A4(C64/C468) mutant) was 43±5%, the “Nh (Hill coefficient)” value (CYP3A4(C377/C468) mutant) was 1.2±0.2 and the “ΔF HS (amplitude of ligand-induced spin shift)” value (CYP3A4(C377/C468) mutant) was 29±9%. The Kd [8] was 5.4 ± 2.1 µM, the “ΔR (change in interprobe distance)” value [4] was −0.3±0.8 Å and the “ΔE (change in LRET efficiency)” value [4] was 1±1%. For the same molecule, the “E (LRET efficiency with ligand)” value [4] was 30 ± 1%, the “R (interprobe distance with ligand)” value [4] was 38.8 ± 0.8 Å and the “ΔR, steady-state measurements” value [4] was −0.3 ± 0.8 Å. For the same molecule, the “ΔR (change in interprobe distance)” value [5] was 0.9±1.8 Å, the “ΔE (change in LRET efficiency)” value [5] was −4±1% and the “E (LRET efficiency with ligand)” value [5] was 41 ± 1%. The “R (interprobe distance with ligand)” value [5] was 35.8 ± 1.8 Å and the “ΔR, steady-state measurements” value [5] was 0.9 ± 1.8 Å.

In the case of CC(C)C[C@H]1C(=O)N2CCC[C@H]2[C@]2(O)O[C@](NC(=O)[C@@H]3C=C4c5cccc6[nH]c(Br)c(c56)C[C@H]4N(C)C3)(C(C)C)C(=O)N12 [Bromocriptine, Bromocriptine mesylate], the Kd [9] is reported as 0.93 ± 0.6 µM, the Kd [8] is reported as 0.28 ± 0.1 µM and the “ΔR (change in interprobe distance)” value [4] is reported as 0.5±1.6 Å. For the same molecule, the “R (interprobe distance with ligand)” value [4] was 39.6 ± 1.6 Å, the “ΔR, steady-state measurements” value [4] was 0.5 ± 1.6 Å and the “ΔR (change in interprobe distance)” value [5] was 0.2±0.2 Å. For the same molecule, the “R (interprobe distance with ligand)” value [5] was 35.1 ± 0 Å and the “ΔR, steady-state measurements” value [5] was 0.2 ± 0.2 Å.
